Several values for one entry are separate records, joined by “and”; a condition that tells them apart may be missing. Equal entries are not always repeated. Toxic doses and inconclusive results are not listed.
Tested on: L1210 leukemia ip in BDF1 mice, survival T/C
Test: NCI In Vivo Anticancer Drug Screen. Data for tumor model L1210 Leukemia (intraperitoneal) in B6D2F1 (BDF1) mice
Settings: endpoint: mean survival time, higher = longer survival
Method in brief: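 Read-out is survival time, reported as the treated-group measurement over the vehicle-control measurement.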

[1] = dose: 100.0 mg/kg/injection, schedule: Q01DX009 (ip), vehicle: saline with Tween-80
[2] = dose: 200.0 mg/kg/injection, schedule: Q01DX009 (ip), vehicle: saline with Tween-80
[3] = dose: 400.0 mg/kg/injection, schedule: Q01DX009 (ip), vehicle: saline with Tween-80
[4] = dose: 100.0 mg/kg/injection, schedule: Q04DX003 (ip), vehicle: saline with Tween-80
[5] = dose: 200.0 mg/kg/injection, schedule: Q04DX003 (ip), vehicle: saline with Tween-80
[6] = dose: 400.0 mg/kg/injection, schedule: Q04DX003 (ip), vehicle: saline with Tween-80

In the case of O=C(/C=C/c1ccccc1)N1CCCCC1, the T/C [1] is reported as 93 % of control, the T/C (dose: 100.0 mg/kg/injection, schedule: Q04DX002 (ip), vehicle: Klucel (hydroxypropylcellulose) (HPC)) is reported as 108 % of control and the T/C [2] is reported as 95 % of control. The T/C (dose: 200.0 mg/kg/injection, schedule: Q04DX002 (ip), vehicle: Klucel (hydroxypropylcellulose) (HPC)) was 101 % of control and the T/C [3] was 102 % of control.
For Cc1c2cc3c(c1O)C(=O)CC(O3)c1ccc(O)c(c1)-c1cccc(c1O)C(=O)OCC1OC(O2)C(O)C(O)C1O (stereo not drawn), the T/C (dose: 0.13 mg/kg/injection, schedule: Q01DX009 (ip), vehicle: Klucel (hydroxypropylcellulose) (HPC)) was 104 % of control, the T/C (dose: 0.25 mg/kg/injection, schedule: Q01DX009 (ip), vehicle: Klucel (hydroxypropylcellulose) (HPC)) was 97 % of control and the T/C (dose: 0.5 mg/kg/injection, schedule: Q01DX009 (ip), vehicle: Klucel (hydroxypropylcellulose) (HPC)) was 98 % of control. For the same compound, the T/C (dose: 1.0 mg/kg/injection, schedule: Q01DX009 (ip), vehicle: Klucel (hydroxypropylcellulose) (HPC)) was 103 % of control.
With CCOC(=O)c1ccc(N2C(=O)c3cccc4cccc(c34)C2=O)cc1 the T/C [1] was 95 % of control, the T/C [4] was 103 % of control and the T/C [2] was 89 % of control. The T/C [5] was 98 % of control, the T/C [3] was 89 % of control and the T/C [6] was 95 % of control.
In the case of O=C(N/N=C\c1ccccc1C(=O)O)c1ccco1, the T/C (dose: 100.0 mg/kg/injection, schedule: Q01DX001 (ip), vehicle: other) is reported as 87 % of control, the T/C (dose: 200.0 mg/kg/injection, schedule: Q01DX001 (ip), vehicle: other) is reported as 93 % of control and the T/C (dose: 400.0 mg/kg/injection, schedule: Q01DX001 (ip), vehicle: other) is reported as 90 % of control.
With COc1ccc(OC)c(/C=C2\N=C(c3ccccc3)OC2=O)c1 the T/C (dose: 100.0 mg/kg/injection, schedule: Q01DX001 (ip), vehicle: acetone) was 97 % of control, the T/C (dose: 100.0 mg/kg/injection, schedule: Q01DX009 (ip), vehicle: saline) was 91 % of control and the T/C (dose: 100.0 mg/kg/injection, schedule: Q04DX003 (ip), vehicle: saline) was 100 % of control. The T/C (dose: 200.0 mg/kg/injection, schedule: Q01DX001 (ip), vehicle: acetone) was 101 % of control, the T/C (dose: 200.0 mg/kg/injection, schedule: Q01DX009 (ip), vehicle: saline) was 94 % of control and the T/C (dose: 200.0 mg/kg/injection, schedule: Q04DX003 (ip), vehicle: saline) was 96 % of control. The T/C (dose: 400.0 mg/kg/injection, schedule: Q01DX001 (ip), vehicle: acetone) was 92 % of control, the T/C (dose: 400.0 mg/kg/injection, schedule: Q01DX009 (ip), vehicle: saline) was 93 % of control and the T/C (dose: 400.0 mg/kg/injection, schedule: Q04DX003 (ip), vehicle: saline) was 98 % of control.
In the case of NC1CCC(CC2CCCCCC2)CC1 (stereo not drawn), the T/C (dose: 6.25 mg/kg/injection, schedule: Q01DX009 (ip), vehicle: Klucel (hydroxypropylcellulose) (HPC)) is reported as 107 % of control, the T/C (dose: 12.5 mg/kg/injection, schedule: Q01DX009 (ip), vehicle: Klucel (hydroxypropylcellulose) (HPC)) is reported as 100 % of control and the T/C (dose: 25.0 mg/kg/injection, schedule: Q01DX009 (ip), vehicle: Klucel (hydroxypropylcellulose) (HPC)) is reported as 97 % of control and 98 % of control.
In the case of Cc1cccc(C2NC(=O)c3ccccc3N2)c1 (stereo not drawn), the T/C (dose: 100.0 mg/kg/injection, schedule: Q04DX003 (ip), vehicle: Klucel (hydroxypropylcellulose) (HPC)) is reported as 91 % of control, the T/C (dose: 200.0 mg/kg/injection, schedule: Q04DX003 (ip), vehicle: Klucel (hydroxypropylcellulose) (HPC)) is reported as 112 % of control and the T/C (dose: 400.0 mg/kg/injection, schedule: Q04DX003 (ip), vehicle: Klucel (hydroxypropylcellulose) (HPC)) is reported as 91 % of control.
With O=C(O)c1cccc(Sc2ccccc2)c1 the T/C (dose: 100.0 mg/kg/injection, schedule: Q01DX001 (ip), vehicle: carboxymethylcellulose (CMC)) was 100 % of control, the T/C (dose: 200.0 mg/kg/injection, schedule: Q01DX001 (ip), vehicle: carboxymethylcellulose (CMC)) was 90 % of control and the T/C (dose: 400.0 mg/kg/injection, schedule: Q01DX001 (ip), vehicle: carboxymethylcellulose (CMC)) was 102 % of control.
For CS(=O)(=O)Nc1ccc(Nc2c3ccccc3nc3cc(N)ccc23)cc1, the T/C (dose: 0.4 mg/kg/injection, schedule: Q01DX009 (ip), vehicle: saline) was 152 % of control, the T/C (dose: 1.25 mg/kg/injection, schedule: Q01DX009 (ip), vehicle: saline) was 100 % of control and the T/C (dose: 4.0 mg/kg/injection, schedule: Q01DX009 (sc), vehicle: saline) was 123 % of control. The T/C (dose: 5.0 mg/kg/injection, schedule: Q01DX009 (ip), vehicle: saline) was 88 % of control, the T/C (dose: 20.0 mg/kg/injection, schedule: Q01DX001 (ip), vehicle: saline) was 92 % of control and the T/C (dose: 40.0 mg/kg/injection, schedule: Q01DX001 (ip), vehicle: saline) was 89 % of control.
With COc1ccc(OC)c(Br)c1 the T/C [1] was 102 % of control, the T/C [4] was 100 % of control and the T/C [2] was 107 % of control. The T/C [5] was 100 % of control, the T/C [3] was 110 % of control and the T/C [6] was 104 % of control.
